Measured values taken from patent US12522597B2, “Methods and compositions for modulating splicing” (Skyhawk Therapeutics, Inc., priority 2019, dated 2026).
Like-named read-outs stand apart in the source and are kept apart here.

Columns and labels:
[1] = test system: Huntingtin (HTT) transcripts; assay: Quantitative splicing assay (HTT), qPCR; format: cell-based; settings: Homo sapiens, GM04724 (CAG 70/20) Huntington's disease patient lymphoblasts, 24 h
Experimental: GM04724 (CAG 70/20) Huntington's disease patient lymphoblasts (Coriell) are plated in 96-wel v-bottom plates at 50,000 cells/well. Immediately after plating, cells are dosed with compound for 24 h at concentrations ranging from 2.5 uM to 0.15 nM (0.1% DMSO). Treated cells are lysed and cDNA synthesized using the Fast Advanced Cells-to-Ct kit (Thermofisher A35378) according to the manufacturer's instructions. 2 uL of each cDNA are used in qPCR reactions to confirm the compound-induced inclusion of a cryptic exon within intron 49 of the Huntingtin (HTT) transcripts. The qPCR reactions are prepared in 384-well plates in 10 uL volume, using TaqMan™ Fast Advanced Master Mix [ThermoFisher; 4444965] with primers and probes shown in the table below. Reactions are run in a Quant Studio 6 qPCR instrument with default settings.

mHTT protein = mHTT protein assay (2B7-MW1, Mesoscale Discovery); format: cell-based, human; settings: GM04724 (CAG 70/20) Huntington's disease patient lymphoblast cells, 48 hours, 2B7-MW1 MSD; read-out: HTT Potency - Protein EC50 mHTT (average)
Summary of the method: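 GM04724 Huntington's patient lymphoblasts (CAG 70/20) were treated for 48 h at 10 μM to 0.6 nM. mHTT was quantified by 2B7-MW1 MSD immunoassay, whose signal depends on polyQ expansion and HTT fragment size. Viability was run on a parallel plate by CellTiter-Glo.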

[2] = test system: MDR1-MDCK cell monolayers; assay: MDCK-MDR1 permeability assay (BBB penetration potential); format: in vitro ADME; settings: dog, MDCK-MDR1, 120 min, 5 μM, pH 7.4
Experimental: (§1) Each determination is performed in duplicate. […] Analytical conditions are outlined below.

MDR1 = assay: as above; format: in vitro ADME; settings: dog; for efflux ratio at 120 min, 5 μM: MDCK-MDR1, pH 7.4, MDCK-MDR1: Efflux; for Papp A→B at 120 min, 5 μM: MDCK-MDR1, pH 7.4, MDCK-MDR1: Papp A-B; for Papp B→A at 120 min, 5 μM: MDCK-MDR1, pH 7.4, MDCK-MDR1: Papp B-A
Experimental: as §1

[3] = qPCR HTTex49_50, read-out: HTT Potency - Splicing: E49-50 EC50 (average)
[4] = qPCR cryptic exon 49b inclusion, read-out: HTT Potency - Splicing: E49b EC50 (average)

Structure (SMILES)	EC50 [1, 3] [nM]	EC50 [1, 4] [nM]	EC50 (mHTT protein) [nM]	MDCK-MDR1: % Recov A-B [2] [%]	MDCK-MDR1: % Recov B-A [2] [%]	efflux ratio at 120 min, 5 μM (MDR1)	Papp A→B at 120 min, 5 μM (MDR1) [×10⁻⁶ cm/s]	Papp B→A at 120 min, 5 μM (MDR1) [×10⁻⁶ cm/s]
Cn1cc(-c2ccc(-c3ccc(O[C@H]4C[C@@H]5CCC[C@@H](N5)[C@H]4F)nn3)c(O)c2F)cn1 (single isomer, unassigned) [119-ENT2]	16 to 50	16 to 50	51 to 100	59	64	3	9.17	29.4
Cn1cc(-c2cc(O)c(-c3ccc(O[C@@H]4C[C@H]5CCC[C@H](N5)[C@@H]4F)nn3)c(F)c2)cn1 (single isomer, unassigned) [118-ENT1]	51 to 100	51 to 100	51 to 100	52	80	5	6.21	33.3
Oc1cc(-c2cn[nH]c2)ccc1-c1ccc(O[C@H]2C[C@@H]3CC(F)(F)[C@H](C2)N3)nn1 (single isomer, unassigned) [46-ENT1]	501 to 10000	501 to 10000	501 to 10000	70	88	3	18.3	47
Oc1cc(-c2cn[nH]c2)ccc1-c1ccc(O[C@H]2C[C@@H]3CCC[C@@H](N3)[C@@H]2F)nn1 (single isomer, unassigned) [41-ENT1]	0.01 to 15	0.01 to 15	0.01 to 15	71	86	8	4.33	34.7
Cn1ccc2cc(-c3ccc(O[C@@H]4C[C@H]5CC[C@H](N5)[C@@H]4F)nn3)c(O)cc2c1=O (single isomer, unassigned) [126-ENT2]	501 to 10000	101 to 500	101 to 500	93	92	13	3.51	45.5
Oc1cc(-c2cn[nH]c2)ccc1-c1ccc(O[C@H]2C[C@@H]3CC[C@@H](N3)[C@H]2F)nn1 (single isomer, unassigned) [42-ENT1]	0.01 to 15	0.01 to 15	0.01 to 15	75	84	12	3.39	42.4
Oc1cc(-c2ccn3ccnc3c2)ccc1-c1ccc(O[C@H]2C[C@@H]3CCC[C@@H](N3)[C@H]2F)nn1 (single isomer, unassigned) [83-ENT2]	501 to 10000	501 to 10000	101 to 500	47	66	12	0.77	9.61
Cn1cnc2cc(O)c(-c3ccc(O[C@@H]4C[C@@]5(C)CCC[C@](C)(N5)[C@@H]4F)nn3)cc2c1=O (single isomer, unassigned) [133-ENT2]	51 to 100	51 to 100	0.01 to 15	92	90	12	5.25	60.9
Cn1ccc2cc(O)c(-c3ccc(O[C@H]4C[C@@H]5CC[C@@H](N5)[C@H]4F)nn3)cc2c1=O (single isomer, unassigned) [129-ENT1]	101 to 500	101 to 500	16 to 50	89	91	12	4.29	52.8
Cn1cc(-c2ccc(-c3ccc(O[C@H]4C[C@@H]5CC[C@@H](N5)[C@H]4F)nn3)c(O)c2)cn1 (single isomer, unassigned) [60-ENT2]	16 to 50	16 to 50	51 to 100	67	78	4	8.12	31.3
COc1cc(-c2ccc(-c3ccc(O[C@@H]4C[C@@]5(C)CC[C@](C)(N5)[C@@H]4F)nn3)c(O)c2)cnn1 (single isomer, unassigned) [157-ENT1]	16 to 50	16 to 50	16 to 50	77	84	6	6.28	35.7
Cn1cc(-c2ccc(-c3ccc(O[C@@H]4C[C@H]5CCC[C@H](N5)[C@@H]4F)nn3)c(O)c2)oc1=O (single isomer, unassigned) [97-ENT1]	16 to 50	16 to 50	0.01 to 15	83	78	14	3.67	50.4
Cn1cnc2cc(O)c(-c3ccc(O[C@H]4C[C@]5(C)CCC[C@@](C)(N5)[C@H]4F)nn3)cc2c1=O (single isomer, unassigned) [133-ENT1]	101 to 500	51 to 100	0.01 to 15	81	87	10	4.98	52.4
Cn1ccc(-c2ccc(-c3ccc(O[C@H]4C[C@@H]5CCC[C@@H](N5)[C@H]4F)nn3)c(O)c2)cc1=O (single isomer, unassigned) [54-ENT2]	16 to 50	16 to 50	16 to 50	101	107	34	1.8	61.9
C[C@]12CCC[C@](C)(N1)[C@H](F)[C@H](Oc1ccc(-c3ccc(-c4cn[nH]c4)cc3O)nn1)C2 (single isomer, unassigned) [147-ENT2]	0.01 to 15	0.01 to 15	0.01 to 15	71	80	13	4.46	58.1
Oc1cc(-c2cn[nH]c2)ccc1-c1ccc(O[C@H]2C[C@@H]3CC[C@@H](N3)[C@@H]2F)nn1 (single isomer, unassigned) [43-ENT1]	16 to 50	16 to 50	0.01 to 15	76	79	7	7.44	48.9
